Measured values reported in US20250282895A1, “PHARMACEUTICAL COMPOSITIONS OF CHEMOTHERAPEUTIC AGENTS BASED ON BETA-S[…]-AMINO ACID DERIVATIVES” (priority 2021, published 2025).
Structures can show the parent of a compound that is named as a salt.

Test: Comparative stability, Formulation 1 (Na3-citrate buffered)
Format: physicochemical
Details: Formulation 1, 25° C.
Experimental: The stability of Compound (1c) either as the HCl salt or as the free base was compared to the stability of melphalan HCl and/or bendamustine HCl in various pharmaceutical formulations and at different concentrations and at temperatures of 0° C. or 25° C.
The stability of the compounds in the pharmaceutical formulations was determined at concentrations within the range from 0.4 mg/mL to 0.5 mg/mL, from 0.9 mg/mL to 1.1 mg/mL, and from 1.8 mg/mL to 2.1 mg/mL.
The amount of the active pharmaceutical ingredient (API) (Compound (1c), melphalan or bendamustine) in the pharmaceutical formulations at different times during storage was determined using HPLC/UV as described in detail for Example 4 and Example 5.
The first formulation included a mixture of 57.5 vol-% 1,2-propylene glycol (1,2-PG), 30 vol-% Kolliphor® HS 15 (Solutol®, Macrogol®, BASF AG/SigmaAldrich), and 12.5 vol-% ethanol (EtOH), and the resulting solution was further diluted and adjusted to pH 6.8 using a pH 8.1-8.3 Na3-citrate buffer (51 mM Na3-citrate·2H2O and 73.6 mM NaCl).
The pH 8.1-8.3 Na3-citrate buffer was prepared form 1.50 g (5.10 mmol) of Na3-citrate. 2H2O (Na3C6H5O7·2H2O; MW 294.10 g/mol; J. T. Baker, 3650-01) and 0.43 g (7.36 mmol) of sodium chloride (NaCl; MW 58.44 g/mol; SigmaAldrich, S9888) dissolved to 100 mL with double-distilled water (dd-H2O) (Arrowhead). The solution was filtered through a 0.45 μm nylon syringe filter, and the pH of the solution was adjusted to 8.1-8.3 with a saturated aqueous solution of sodium hydrogencarbonate (NaHCO3).
The excipient mixture was prepared from 4.77 g (62.7 mmol; 4.6 mL) 1,2-propylene glycol (1,2-PG; MW 76.09 g/mol; d 1.036; Acros Organics, 220870010), 2.52 g (2.40 mL, d 1.05) of melted (15 s microwaving) Kolliphor® HS 15 (BASF AG/SigmaAldrich, 42966), and 0.798 g (17.32 mmol, 1.0 mL) of ethanol (EtOH, MW 46.06 g/mol, d 0.798, KOPTEC, V1016). The clear viscous mixture was warmed to about 40° C. before use (water bath).
A series of 12 mL glass vials each containing 6.1 mg ([…]) of Compound (1c) mono-hydrochloride salt (corresponding to 5.5 mg of Compound (1c) as the free base) were prepared as described in Example 5 through lyophilization of aliquots of an acidified stock solution.
(§1) 660 μL (6 vol-%) of pre-warmed excipient mixture were added to the Compound (1c) mono-hydrochloride salt in the vial. Compound (1c) mono-hydrochloride salt was dissolved with gentle heating and vortexing. The viscous solution was further diluted with 10,340 μL (94 vol-%) of pH 8.1-8.3 Na3-citrate buffer to provide 11.0 mL of a clear, colorless formulation with a concentration of 0.5 mg/ml of Compound (1c) as a monohydrochloride salt and a pH of 6-7.
as §1, with “330” for “660”, “5,170” for “10,340”, “5.5” for “11.0”, “1.0 mg/mL” for “0.5 mg/ml”
as §1, with “165” for “660”, “2,585” for “10,340”, “2.75” for “11.0”, “2.0” for “0.5”
The solutions were placed in glass vials and stored at room temperature (about 25° C.), and the amount of Compound (1c) derived from the mono hydrochloride salt (mono HCl salt) of compound of Formula (1c) was measured at intervals using analytical high pressure liquid chromatography coupled to a UV detector (HPLC/UV) as described in Example 4.

Cc1ccc(N(CCCl)CCCl)cc1C[C@H](N)CC(=O)O [Compound (1c)•HCl, (S)-3-amino-4-(5-(bis(2-chloroethyl)amino)-2-methylphenyl) butanoic acid mono hydrochloride salt]
% API (pH 6.8, 0.5 hours, 0.4-0.5 mg/mL): 79%
% API (pH 6.8, 0.5 hours, 0.9-1.1 mg/mL): 84%
% API (pH 6.8, 0.5 hours, 1.8-2.1 mg/mL): 88%
% API (pH 6.8, 2.0 hours, 0.4-0.5 mg/mL): 52%
% API (pH 6.8, 2.0 hours, 0.9-1.1 mg/mL): 55%
% API (pH 6.8, 2.0 hours, 1.8-2.1 mg/mL): 65%
